For orientation: pIC50 means −log10 of the IC50, conventionally taken in molar units.

pIC50: −log10 of the molar value.

This passage reports IC50 results from PubChem BioAssay AID2060364.

In this test the test system is JHH-NF1-GBM1 glioma viability, PrestoBlue fluorescence, 120 h. As to the kind of experiment: viability reduction in NF1-associated ATRX-deficient glioma cells, dose response, cell-based, JHH-NF1-GBM1, PrestoBlue (AID 2060364).

As for `O=[N+]([O-])c1c(NCCO)cc(Sc2nc3ccccc3s2)c2nonc12`, the pIC50 was 5.32.
